Data as given in PubChem BioAssay (NCI).
Values joined by “and” are separate entries in the source; they are usually repeats but may differ in a detail not shown here. Equal entries are not always repeated.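 In this assay, cells in 96-well plates receive the compound at five concentrations for 48 hours. Endpoints are linearly interpolated between the surrounding concentrations. At the GI50, growth is halved. TGI is the concentration that stops growth completely.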

Legend:
Test in all cases: inhibition of tumour cell growth, NCI panel, 48 h
DLD-1 colon = system: DLD-1 colon
DMS 114 small cell lung = system: DMS 114 small cell lung
DMS 273 small cell lung = system: DMS 273 small cell lung
HOP-18 NSCLC = system: HOP-18 NSCLC
M19-MEL melanoma = system: M19-MEL melanoma
SNB-78 CNS = system: SNB-78 CNS
XF 498 CNS = system: XF 498 CNS
RXF-631 renal = system: RXF-631 renal

Row | SMILES | TGI (DLD-1 colon) [µM] | TGI (DMS 114 small cell lung) [µM] | TGI (DMS 273 small cell lung) [µM] | TGI (HOP-18 NSCLC) | TGI (M19-MEL melanoma) [µM] | TGI (SNB-78 CNS) [µM] | TGI (XF 498 CNS) [µM] | GI50 (DLD-1 colon) [µM] | GI50 (DMS 114 small cell lung) [µM] | GI50 (HOP-18 NSCLC) [µM] | GI50 (M19-MEL melanoma) [µM] | TGI (RXF-631 renal) [µM]
1 | C[S+](C)C1(c2ccccc2)C(=O)c2ccccc2C1=O | > 100 | > 100 | > 100 | > 100 µM | > 100 | > 100 | 94 | – | – | – | – | –
2 | O=c1cc(-c2ccccc2)[nH]c2c(F)ccc(F)c12 | > 100 | > 100 | > 100 | > 100 µM | > 100 | – | – | – | – | – | – | –
3 | CN(C)CC(C)(C)C(=O)/C=C/c1ccccc1 | 74.3 | 29.1 | 47.7 | 49.8 µM | 32.2 | 88.6 | 23.8 | – | – | – | – | –
4 | C/C(=N/OCCC(=O)O)C1CC1 | > 100 | > 100 | > 100 | > 100 µM | > 100 | > 100 | > 100 | – | – | – | – | –
5 | CCC(C)Cn1c(C)nc2c1C(=O)c1ccccc1C2=O (configuration not stated) | > 100 | – | 64 | – | 33.9 | > 100 | 56 | – | – | – | – | –
6 | Cc1cc(N)c2cc(NC(=O)CCCCCCCCC(=O)Nc3ccc4nc(C)cc(N)c4c3)ccc2n1 | > 100 | – | > 45.3 | > 100 µM | > 100 | > 100 | > 100 | – | – | – | – | –
7 | COc1cccc2c1C(=O)c1c(O)c3c(c(O)c1C2=O)C[C@@](O)(C(=O)CO)CC3OC1CC(NCCCCC(OC(C)=O)OC(C)=O)C(O)C(C)O1 (some centres not stated) | 0.245 | 0.00291 | – | 0.00926 µM and 0.0807 µM | 0.00334 | 0.00804 | – | 0.00247 | 0.00083 | 0.0078 | 0.00156 | 0.00803
